Literature values as cited in article PMC7693160 (Pharmaceutics, 2020).

How the values were obtained:
Set-up in all cases: method as in Kumar et al. 43
Conditions in all cases: ref Kumar et al. 43, read-out: Perpetrator in vitro Ki; cited from earlier work
CYP2C9 1*/3* = test system: CYP2C9 1*/3*
CYP2C9 1*/1* = test system: CYP2C9 1*/1*
CYP2C9 3*/3* = test system: CYP2C9 3*/3*

OC(Cn1cncn1)(Cn1cncn1)c1ccc(F)cc1F [Fluconazole, fluconazole]
Ki (CYP2C9 1*/3*): 17 µM
Ki (CYP2C9 1*/1*): 11 µM
Ki (CYP2C9 3*/3*): 23 µM
